{"source": "patent US9598720B2", "about": "“Monomeric and polymeric linkers useful for conjugating biological molecules and other substances” (DAKO Denmark A/S, priority 2005, dated 2017)", "note": "“Also recorded” adds a separate entry of the source.", "data": [{"system": "repetitive DNA sequence in the centromere of the human chromosome 17", "assay": "FISH on metaphases with fluorescein labeled PNAs, green signal compared with a red fluorescent PNA", "details": "visual and Leica QFISH Measure Intensity", "description": "The PNA sequence was directed at a repetitive DNA sequence in the centromere of the human chromosome 17, allowing the PNAs to be compared by FISH on metaphases. To erase specimen variation, each of the PNAs was mixed with a red fluorescent PNA directed at the same centromere region on chromosome 17, and the intensity of the red and green signals compared visually and quantified by the “Measure Intensity” function in the Leica QFISH program.", "values": [{"substance": "Ac-Lys(Flu)-L30-AACGGGATAACTGCACCT-L30-Lys(Flu)-L90-Lys(Flu)-L90-Lys(Flu)-NH2 (all peptide nucleic acid (PNA); PNA with Lys(Flu) fluorescein and L30/L90 linkers at the termini, C-terminal amide, further chemistry not fully specified) [Linker derivative 15]", "intensity of the green signal": "more intense signals"}, {"substance": "H-Lys(Flu)-L30-AACGGGATAACTGCACCT-L30-Lys(Flu)-L90-Lys(Flu)-L90-Lys(Flu)-NH2 (all peptide nucleic acid (PNA); PNA with Lys(Flu) fluorescein and L30/L90 linkers at the termini, C-terminal amide, further chemistry not fully specified) [Linker derivative 16]", "intensity of the green signal": "more intense signals; also recorded: most intense"}, {"substance": "((FlU-L60)2-Lys-L60)2-LyS-L30-AACGGGATAACTGCACCT-NH2 (all peptide nucleic acid (PNA); PNA with Lys(Flu) fluorescein and L30/L90 linkers at the termini, C-terminal amide, further chemistry not fully specified) [Linker derivative 19]", "intensity of the green signal": "more intense signals"}]}]}
